This is an account of results in patent US9624234B2, “Heterocyclic compounds and methods for their use” (Novartis AG, priority 2012, dated 2017).

Each structure is given as a SMILES string.

Sequence of AT2 receptor (P50052 whole entry, species assumed): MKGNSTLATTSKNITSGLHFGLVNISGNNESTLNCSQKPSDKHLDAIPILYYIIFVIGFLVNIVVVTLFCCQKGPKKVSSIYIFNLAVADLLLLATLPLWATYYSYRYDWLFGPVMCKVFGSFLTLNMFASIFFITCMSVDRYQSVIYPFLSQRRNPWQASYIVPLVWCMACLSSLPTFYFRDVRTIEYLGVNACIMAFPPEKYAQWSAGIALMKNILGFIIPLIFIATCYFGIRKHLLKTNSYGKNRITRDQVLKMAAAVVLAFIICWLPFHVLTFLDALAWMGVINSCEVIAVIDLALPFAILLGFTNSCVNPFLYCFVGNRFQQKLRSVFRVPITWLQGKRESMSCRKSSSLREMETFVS

The assay addresses AT2 receptor (Homo sapiens (Human), UniProt P50052). The experiment in a line: AT2 receptor binding ([125I]-CGP42112A radioligand, HEK293/AT2 receptor membranes). As to conditions: HEK293/AT2 receptor transient transfected cell membranes, RT 1.5 hrs. As for the experimental part: • 1. Trypsin-EDTA (for preparation of 100 mL) • Trypsin 0.25 g • 2% EDTA 2 mL • PBS 98 mL • Dissolve trypsin in 2% EDTA and PBS completely; sterilize the solution by passing through a […] membrane filter; store at 4° C. • 2. DMEM medium (for preparation of 1 L) • The powder was dissolved into 950 mL of distilled water with gentle stirring until the solution becomes clear. • Add NaHCO3 1.176 g for DMEM medium. • Adjust pH of medium to 0.2-0.3 below final working pH using 1 M NaOH or 1 M HCl. Add slowly with stirring. • Dilute to 1 liter with ddH2O. • Sterilize the medium immediately by filtration. • Store at 4° C. • 3. TE buffer • 20 mM Tris-HCl, pH 7.4, • 5 mM EDTA • 4. Binding Assay Buffer • 50 mM Hepes, pH 7.4 • 5 mM MgCl2 • 1 mM CaCl2 • 0.2% BSA • 5. Wash Buffer • 50 mM Hepes, pH 7.4 Procedures for HEK293/AT2 Receptor Transient Cell Transfection • Cells were plated into 150 mm dish at 50% density for transient transfection. Cells were ready for transfection after overnight incubation (the confluence reaches around 80%). • 75 μL Lipofectamine™2000 diluted in 6.25 mL OptiMEM I Reduced Serum Medium, was mixed gently, and incubated at room temperature for 5 minutes. 50 μg expression plasmid DNA diluted in 6.25 mL OptiMEM I Reduced Serum Medium without serum was mixed gently. • After the 5 minute incubation, the diluted DNA was combined with the diluted Lipofectamine™2000 (total volume is 12.5 mL). The mixture was mixed gently and incubated for 30 minutes at room temperature to allow the DNA-Lipofectamine™2000 complexes to form. • The 12.5 mL DNA-Lipofectamine™2000 complexes were added into the 150 mm dish and mixed gently by rocking the dish back and forth. • The cells were incubated at 37° C. with 5% CO2 for 48 hours. • Cells were collected and stored frozen at −80° C. Procedures for HEK293/AT2 Receptor Cell Membrane Preparation • Frozen HEK293/AT2 receptor (transient transfected) cells were homogenized in ice cold TE buffer for 10 s. • The homogenate was centrifuged at 25,000 g for 30 minutes. • The pellet was resuspended in ice cold tissue buffer. • Protein concentrations were determined using Bradford assay method with BSA as standard. • The membrane protein was frozen under −80° C. Compound Preparation
Solutions of all compounds were prepared by microplate liquid handling equipment such as Janus or Precision 2000. Compounds, dissolved in DMSO were stored in a Freezer. Compounds were prepared from 30 mM in 100% DMSO.
Step 1: Dose Plate Preparation (96 Well Plate)
• Add the 3 μL [30 mM] compound stock to column 1 on the plate. • Add 15 μL of 100% DMSO to column 1. • Add 10.81 μL of 100% DMSO to column 2-12. • Transfer 5 μL from column 1 into column 2 (half log dilution). • Transfer 5 μL from column 2 into column 3 (half log dilution). • Transfer 5 μL from column 3 into column 4 (half log dilution). • Transfer 5 μL from column 4 into column 5 (half log dilution). • Transfer 5 μL from column 5 into column 6 (half log dilution). • Transfer 5 μL from column 6 into column 7 (half log dilution). • Transfer 5 μL from column 7 into column 8 (half log dilution). • Transfer 5 μL from column 8 into column 9 (half log dilution). • Transfer 5 μL from column 9 into column 10 (half log dilution) • Transfer 5 μL from column 10 into column 11 (half log dilution) • Transfer 5 μL from column 11 into column 12 (half log dilution). All the compounds were diluted using Precision 2000 microplate liquid handling equipment. The top concentration of compound was 5 mM with 100% DMSO. Step 2: Working Plate Preparation (96 Well Plate) • Compounds were diluted 50-fold with buffer. • 49 μL buffer was added to the well of 96 well plate. • 1 μL compound solution from dose plate was transferred to the corresponding well of working plate. • The top concentration of compound was 100 μM with 2% DMSO. Step 3: Assay Plate Preparation (96 Well Plate)
15 μL of compound solution was transferred from each well of working plate to the well of assay plate by Janus.
`CC#CCN(C)[C@@H]1CCN(C(=O)C(c2ccccc2)c2ccccc2)[C@H](C(=O)O)C1` [Compound 42] displayed an IC50 of 852 nM.
As for `O=C(O)[C@@H]1C[C@H](N2CCC[C@H](c3ccccc3)C2)CCN1C(=O)C(c1ccccc1)c1ccccc1` [Compound 55, (2′S,3R,4′R)-1′-(2,2-diphenylacetyl)-3-phenyl-[1,4′-bipiperidine]-2′-carboxylic acid], the figure is 294 nM.
Compound `CN(CC#CC(C)(C)C)[C@@H]1CCN(C(=O)C(c2ccccc2)c2ccccc2)[C@H](C(=O)O)C1` [Compound 54, (2S,4R)-4-((4,4-dimethylpent-2-yn-1-yl)(methyl)amino)-1-(2,2-diphenylacetyl)piperidine-2-carboxylic acid] showed an IC50 of 33.9 nM.
As for `O=C(O)[C@@H]1C[C@H](OCCCc2ccccc2)CCN1C(=O)C(c1ccccc1)c1ccccc1` [Compound 41, (2S,4R)-1-(2,2-diphenylacetyl)-4-((3-phenylpropyl)oxy)piperidine-2-carboxylic acid], the figure is 101 nM.
As for `CN(CC#Cc1ccccc1)[C@H]1CCN(C(=O)C(c2ccccc2)c2ccccc2)[C@H](C(=O)O)C1` [Compound 33, (2S,4S)-1-(2,2-diphenylacetyl)-4-(methyl(3-phenylprop-2-yn-1yl)amino)piperidine-2-carboxylic acid], the figure is 2710 nM; as for `O=C(O)[C@@H]1C[C@@H](N2CCC[C@H](c3ccccc3)C2)CCN1C(=O)C(c1ccccc1)c1ccccc1` [Compound 56, (2′S,3R,4′R)-1-(2,2-diphenylacetyl)-3-phenyl-[1,4′-bipiperidine]-2′-carboxylic acid], 111 nM.
As for `CN(CCc1ccccc1)[C@@H]1CCN(C(=O)C(c2ccccc2)c2ccccc2)[C@H](C(=O)O)C1` [Compound 34, (2S,4R)-1-(2,2-diphenylacetyl)-4-(methyl(3-phenethyl)amino)piperidine-2-carboxylic acid], the figure is 918 nM.
Consider `CN(CC#Cc1ccc(F)cc1)[C@@H]1CCN(C(=O)C(c2ccccc2)c2ccccc2)[C@H](C(=O)O)C1` [Compound 46], for which the IC50 is 55.9 nM.
Compound `CN(CCc1ccccc1)[C@H]1CCN(C(=O)C(c2ccccc2)c2ccccc2)[C@H](C(=O)O)C1` [Compound 35, (2S,4S)-1-(2,2-diphenylacetyl)-4-(methyl(3-phenethyl)amino)piperidine-2-carboxylic acid] registered an IC50 of 101 nM.
As for `O=C(O)[C@@H]1C[C@@H](N2CCC[C@@H](c3ccccc3)C2)CCN1C(=O)C(c1ccccc1)c1ccccc1` [Compound 58, (2′S,3S,4′S)-1′-(2,2-diphenylacetyl)-3-phenyl-[1,4′-bipiperidine]-2′-carboxylic acid], the figure is 170 nM; as for `CN(CC#Cc1ccccc1)[C@@H]1CCN(C(=O)C(c2ccccc2)c2ccccc2)[C@H](C(=O)O)C1` [Compound 32], 108 nM.
As for `O=C(O)[C@@H]1C[C@H](OCC#Cc2ccccc2)CCN1C(=O)C(c1ccccc1)c1ccccc1` [Compound 40, (2S,4R)-1-(2,2-diphenylacetyl)-4-((3-phenylprop-2-yn-yl)oxy)piperidine-2-carboxylic acid], the figure is 228 nM.
As for `CN(Cc1ccccc1)[C@H]1CCN(C(=O)C(c2ccccc2)c2ccccc2)[C@H](C(=O)O)C1` [Compound 39, (2S,4S)-4-(benzyl(methyl)amino)-1-(2,2-diphenylacetyl)piperidine-2-carboxylic acid], the IC50 was determined as 648 nM.
As for `CN(Cc1ccccc1)[C@@H]1CCN(C(=O)C(c2ccccc2)c2ccccc2)[C@H](C(=O)O)C1` [Compound 38, (2S,4R)-4-(benzyl(methyl)amino)-1-(2,2-diphenylacetyl)piperidine-2-carboxylic acid], the figure is 854 nM.
As for `O=C(O)[C@@H]1C[C@H](N2CCC[C@@H](c3ccccc3)C2)CCN1C(=O)C(c1ccccc1)c1ccccc1` [Compound 57, (2′S,3S,4′R)-1′-(2,2-diphenylacetyl)-3-phenyl-[1,4′-bipiperidine]-2′-carboxylic acid], the figure is 1440 nM.
As for `CN(CCCc1ccccc1)[C@@H]1CCN(C(=O)C(c2ccccc2)c2ccccc2)[C@H](C(=O)O)C1` [Compound 31, (2S,4R)-1-(2,2-diphenylacetyl)-4-(methyl(phenylpropyl)amino)piperidine-2-carboxylic acid], the figure is 5090 nM; as for `O=C(O)[C@@H]1Cc2c(ccc3c2Oc2ccccc2O3)CN1C(=O)C(c1ccccc1)c1ccccc1` [Compound 9, (S)-3-(2,2-diphenylacetyl)-1,2,3,4-tetrahydrobenzo[5,6][1,4]dioxino[2,3-f]isoquinoline-2-carboxylic acid], 159 nM.
`CC#CCN(C)[C@H]1CCN(C(=O)C(c2ccccc2)c2ccccc2)[C@H](C(=O)O)C1` [Compound 43] gave an IC50 of 2050 nM. This IC50 lies about 13-fold higher than the previous one.
As for `O=C(O)[C@@H]1Cc2c(c3ccccc3n2Cc2ccccc2)CN1C(=O)C(c1ccccc1)c1ccccc1` [Compound 1], the figure is 210 nM; as for `CN(CC#Cc1ccc(F)cc1)[C@H]1CCN(C(=O)C(c2ccccc2)c2ccccc2)[C@H](C(=O)O)C1` [Compound 47, (2S,4S)-1-(2,2-diphenylacetyl)-4-((3-(4-fluorophenyl)prop-2-yn-1-yl)(methyl)amino)piperidine-2-carboxylic acid], 1040 nM.
For `O=C(O)[C@@H]1CC(OCc2ccccc2)CCN1C(=O)C(c1ccccc1)c1ccccc1` (stereo partly drawn) [Compound 26, (2S)-4-(benzyloxy)-1-(2,2-diphenylacetyl)piperidine-2-carboxylic acid], the IC50 was found to be 218 nM.

One may read the IC50 as the concentration at which inhibition is half-maximal.
